Reference: PMC6099841, “New Chromane-Based Derivatives as Inhibitors of Mycobacterium tuberculosis Salicylate Synthase (MbtI): Preliminary Biological Evaluation and Molecular Modeling Studies” (Molecules : A Journal of Synthetic Chemistry and Natural …, 2018)
Like-named read-outs stand apart in the source and are kept apart here.

How the values were obtained:
Assay in all cases: biochemical
salicylate synthase MbtI [1] = target: T1, salicylate synthase MbtI (Mycobacterium tuberculosis, UniProt P9WFX1)
T1 sequence (P9WFX1 whole entry): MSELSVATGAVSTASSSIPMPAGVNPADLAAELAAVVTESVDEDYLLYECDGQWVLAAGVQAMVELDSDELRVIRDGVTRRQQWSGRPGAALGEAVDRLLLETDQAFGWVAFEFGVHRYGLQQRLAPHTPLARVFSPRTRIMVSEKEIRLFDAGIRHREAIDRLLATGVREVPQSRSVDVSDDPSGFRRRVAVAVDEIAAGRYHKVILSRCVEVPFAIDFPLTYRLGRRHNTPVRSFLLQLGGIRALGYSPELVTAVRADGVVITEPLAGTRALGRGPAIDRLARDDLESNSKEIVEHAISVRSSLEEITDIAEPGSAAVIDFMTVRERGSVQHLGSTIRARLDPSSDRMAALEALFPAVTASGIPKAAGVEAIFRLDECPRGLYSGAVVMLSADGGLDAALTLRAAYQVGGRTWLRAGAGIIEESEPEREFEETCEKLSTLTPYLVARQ

salicylate synthase MbtI [2] = target: T1, salicylate synthase MbtI; remark: listed apart in the source
salicylate synthase MbtI [3] = target: T1, salicylate synthase MbtI; conditions: read-out: MbtI Residual Activity at 100 μM

SMILES: CC=C(Oc1cccc(C(=O)O)c1O)C(=O)O [I, (1-carboxyprop-1-enyloxy)-2-hydroxybenzoic acid]
- IC50 (salicylate synthase MbtI [1]): 11.6 ± 2.4 µM

SMILES: CC1CC(=O)c2c(cc(O)cc2C(=O)O)O1 (stereo not shown) [compound 1, 7-Hydroxy-2-methyl-4-oxo-3,4-dihydro-2H-benzopyran-5-carboxylic acid]
- IC50 (salicylate synthase MbtI [2]; read-out: IC50): 55.8 ± 4.2 µM

SMILES: O=C(O)c1cc(O)cc2c1C(=O)CCO2 [compound 2, 7-Hydroxy-4-oxo-3,4-dihydro-2H-benzopyran-5-carboxylic acid]
- IC50 (salicylate synthase MbtI [2]; read-out: MbtI IC50): 61.3 ± 5.3 µM

SMILES: CC1CCc2c(cc(O)cc2C(=O)O)O1 (stereo not shown) [compound 5, 7-Hydroxy-2-methylchroman-5-carboxylic acid]
- remaining activity at 100 µM (salicylate synthase MbtI [3]): 50.1 ± 7.1%
